From PMC3700763, “First human dose-escalation study with remogliflozin etabonate, a selective inhibitor of the sodium-glucose transporter 2 (SGLT2), in healthy subjects and in subjects with type 2 diabetes mellitus” (BMC Pharmacology & Toxicology, 2013)
Marks after values point to notes of the source that are not given here.

Legend:
[1] = Plasma pharmacokinetics, healthy subjects; format: in vivo, human; conditions: for AUC ratio (remogliflozin/remogliflozin etabonate) Geometric mean: molecular weight corrected; for half-life / Tmax / AUC(0-inf) / Cmax: human; for AUC(0-inf): read-out: AUC(0-∞) Geometric mean (CV%); for Cmax: read-out: Cmax Geometric mean (CV%)
Description: Ten healthy subjects were evaluated in 5 study sessions, each separated by approximately 2 weeks. At each study session, subjects received either an oral dose of remogliflozin etabonate or placebo after an overnight fast. Remogliflozin etabonate doses were 20 mg, 50 mg, 150 mg, 500 mg and 1000 mg. Over the course of participation in the study, each subject received 4 of the 5 active remogliflozin etabonate doses and 1 dose of placebo (4:1 active to placebo ratio per treatment period). The available safety and PK results from each dosing period were evaluated before proceeding to the next dose level. On each dosing day, a series of 2.0 mL blood samples were collected at pre-dose and 10, 20, 30 and 45 min, and 1, 1.25, 1.5, 2, 2.5, 3, 4, 6, 8, 12, 16, and 24 h post-dose for the determination of remogliflozin etabonate, remogliflozin and GSK279782 in plasma by using high-performance liquid chromatography with tandem mass spectrometry (MS/MS) as described. Non-compartmental PK analysis of plasma concentration–time data was performed using WinNonlin Version 4.1 (Pharsight Corporation, Mountainview, CA, USA). The Cmax and Tmax were obtained directly from the data. Areas under the plasma concentration–time curves from time zero to the last quantifiable time point (AUC[0–last]) and extrapolated to infinity (AUC[0–∞]) were calculated using the log-linear trapezoidal method. The terminal plasma elimination rate-constant (λz) was estimated from log-linear regression analysis of the terminal phase of the plasma concentration–time curve, and the T½ was calculated as T½ = ln2/λz. Ratios of AUC(0–∞) remogliflozin to AUC(0–last) remogliflozin etabonate were calculated including molecular weight corrections. Safety and pharmacodynamic data were summarized using descriptive statistics. This was a small exploratory study and no formal hypothesis-testing was conducted. Dose proportionality with respect to Cmax, and AUC was assessed using the power model y = α dose^β, where y = Cmax or AUC, and α denotes a random subject effect. The exponent β in the power model will be estimated by regressing the loge-transformed PK parameters on loge dose, i.e. ln(PK parameter) = ln(α) + β * ln(dose). Dose proportionality implied that β = 1 and was assessed by estimating β and its corresponding 90% confidence interval. The power model was fitted by restricted maximum likelihood using SAS Proc Mixed.

[2] = tested on: SGLT2 over SGLT1; design: method as in PMID 12139397; conditions: cited from earlier work
[3] = Plasma pharmacokinetics, T2DM subjects; format: in vivo, human; conditions: for AUC(0-inf) / Cmax / Tmax / half-life: human, plasma analyte; for AUC(0-inf): read-out: AUC(0–∞) Geometric mean (CV%); for Cmax: read-out: Cmax Geometric mean (CV%); for Tmax: read-out: Tmax Median; for half-life: read-out: T½ Geometric mean (CV%) (converted)
Description: Six subjects with T2DM received two doses of remogliflozin etabonate and a placebo dose, in a randomized, dose escalating, crossover design, along with an oral glucose load on three study sessions separated by 7–14 days. Full PK and safety profiles were measured on Day 1 of each dosing period. The doses selected for this portion of the study, 50 mg and 500 mg, were based on data obtained in Part A. In each dosing period, subjects were assigned to active vs placebo in a 2:1 ratio. On each dosing day, a series of 2.0 mL blood samples were collected at pre-dose and 10, 20, 30 and 45 min, and 1, 1.25, 1.5, 2, 2.5, 3, 4, 6, 8, 12, 16, and 24 h post-dose for the determination of remogliflozin etabonate, remogliflozin and GSK279782 in plasma by using high-performance liquid chromatography with tandem mass spectrometry (MS/MS) as described. Non-compartmental PK analysis of plasma concentration–time data was performed using WinNonlin Version 4.1 (Pharsight Corporation, Mountainview, CA, USA). The Cmax and Tmax were obtained directly from the data. Areas under the plasma concentration–time curves from time zero to the last quantifiable time point (AUC[0–last]) and extrapolated to infinity (AUC[0–∞]) were calculated using the log-linear trapezoidal method. The terminal plasma elimination rate-constant (λz) was estimated from log-linear regression analysis of the terminal phase of the plasma concentration–time curve, and the T½ was calculated as T½ = ln2/λz. Ratios of AUC(0–∞) remogliflozin to AUC(0–last) remogliflozin etabonate were calculated including molecular weight corrections.

[4] = tested on: SGLT-2; design: method as in PMID 22851617; conditions: relative to remogliflozin; cited from earlier work
[5] = plasma, po, 20 mg, plasma analyte, healthy subjects, remogliflozin etabonate 20 mg oral dose, read-out: T½ Geometric mean (CV%) (converted)
[6] = plasma, po, 50 mg, plasma analyte, healthy subjects, remogliflozin etabonate 50 mg oral dose, read-out: T½ Geometric mean (CV%) (converted)
[7] = plasma, po, 150 mg, plasma analyte, healthy subjects, remogliflozin etabonate 150 mg oral dose, read-out: T½ Geometric mean (CV%) (converted)
[8] = plasma, po, 500 mg, plasma analyte, healthy subjects, remogliflozin etabonate 500 mg oral dose, read-out: T½ Geometric mean (CV%) (converted)
[9] = plasma, po, 1000 mg, plasma analyte, healthy subjects, remogliflozin etabonate 1000 mg oral dose, read-out: T½ Geometric mean (CV%) (converted)
[10] = plasma analyte, healthy subjects, remogliflozin etabonate 20 mg oral dose
[11] = plasma analyte, healthy subjects, remogliflozin etabonate 20 mg oral dose, read-out: Tmax Median
[12] = plasma analyte, healthy subjects, remogliflozin etabonate 50 mg oral dose
[13] = plasma analyte, healthy subjects, remogliflozin etabonate 50 mg oral dose, read-out: Tmax Median
[14] = plasma analyte, healthy subjects, remogliflozin etabonate 150 mg oral dose
[15] = plasma analyte, healthy subjects, remogliflozin etabonate 150 mg oral dose, read-out: Tmax Median
[16] = plasma analyte, healthy subjects, remogliflozin etabonate 500 mg oral dose
[17] = plasma analyte, healthy subjects, remogliflozin etabonate 500 mg oral dose, read-out: Tmax Median
[18] = plasma analyte, healthy subjects, remogliflozin etabonate 1000 mg oral dose
[19] = plasma analyte, healthy subjects, remogliflozin etabonate 1000 mg oral dose, read-out: Tmax Median
[20] = remogliflozin etabonate 50 mg oral dose
[21] = remogliflozin etabonate 500 mg oral dose (prodrug n = 2)
[22] = remogliflozin etabonate 500 mg oral dose

Structure (SMILES) | half-life [1, 5] | half-life [1, 6] | half-life [1, 7] | half-life [1, 8] | half-life [1, 9] | AUC(0-inf) [1, 10] | Cmax [1, 10] | Tmax [1, 11] | AUC(0-inf) [1, 12] | Cmax [1, 12] | Tmax [1, 13] | AUC(0-inf) [1, 14] | Cmax [1, 14] | Tmax [1, 15] | AUC(0-inf) [1, 16] | Cmax [1, 16] | Tmax [1, 17] | AUC(0-inf) [1, 18] | Cmax [1, 18] | Tmax [1, 19] | also measured
Cc1c(Cc2ccc(OC(C)C)cc2)c(O[C@@H]2O[C@H](CO)[C@@H](O)[C@H](O)[C@H]2O)nn1C(C)C [Remogliflozin, remogliflozin] | 1.38 h | 1.47 h | 1.59 h | 2.57 h | 2.86 h | 133 ng·h/mL | 61 ng/mL | 0.89 h | 324 ng·h/mL | 158 ng/mL | 1.14 h | 991 ng·h/mL | 515 ng/mL | 0.66 h | 3720 ng·h/mL | 1700 ng/mL | 1.5 h | 10300 ng·h/mL | 4820 ng/mL | 1.25 h | AUC ratio (remogliflozin/remogliflozin etabonate) Geometric mean ([1]; healthy subjects, 20 mg oral dose, n = 5): 84^d; AUC ratio (remogliflozin/remogliflozin etabonate) Geometric mean ([1]; healthy subjects, 50 mg oral dose): 81; AUC ratio (remogliflozin/remogliflozin etabonate) Geometric mean ([1]; healthy subjects, 150 mg oral dose): 102; AUC ratio (remogliflozin/remogliflozin etabonate) Geometric mean ([1]; healthy subjects, 500 mg oral dose): 105; AUC ratio (remogliflozin/remogliflozin etabonate) Geometric mean ([1]; healthy subjects, 1000 mg oral dose): 95; Time to appearance in plasma at relatively high concentrations ([1]; healthy subjects, after remogliflozin etabonate dosing): ≤ 10 min; half-life ([1]; plasma, oral, both populations, independent of dose (abstract), read-out: mean plasma T½): 2 h; half-life ([1]; plasma, oral, healthy subjects, 20-1000 mg, read-out: mean T½ estimates, range across doses): 1.38 to 2.86 h; Tmax ([1]; plasma, both populations, after oral RE (abstract), read-out: time to maximum plasma concentration (Tmax)): ~1 h; Selectivity for SGLT2 over SGLT1 [2]: high level of selectivity; AUC(0–∞) ratio (Remogliflozin/remogliflozin etabonate) Geometric mean (CV%) ([3]; 50 mg oral dose): 59 (62); AUC(0–∞) ratio (Remogliflozin/remogliflozin etabonate) Geometric mean (CV%) ([3]; 500 mg oral dose): 54 (38); AUC(0-inf) [3, 20]: 523 ng·h/mL; Cmax [3, 20]: 195 ng/mL; Tmax [3, 20]: 1.46 h; half-life [3, 20]: 1.59 h; AUC(0-inf) [3, 21]: 5180 ng·h/mL; half-life [3, 21]: 3.93 h; Cmax [3, 22]: 1890 ng/mL; Tmax [3, 22]: 2.5 h
Cc1[nH]nc(O[C@@H]2O[C@H](CO)[C@@H](O)[C@H](O)[C@H]2O)c1Cc1ccc(OC(C)C)cc1 [GSK279782] | 1.54 h | 2.19 h | 2.28 h | 3.07 h | 3.5 h | 51.8 ng·h/mL | 17.5 ng/mL | 1.26 h | 145 ng·h/mL | 50.2 ng/mL | 1.38 h | 447 ng·h/mL | 155 ng/mL | 1 h | 1520 ng·h/mL | 498 ng/mL | 1.5 h | 4000 ng·h/mL | 1290 ng/mL | 1.25 h | Potency in inhibiting SGLT-2 in vitro [4]: as potent as remogliflozin; Tmax ([1]; plasma, oral, healthy subjects, 20-1000 mg, read-out: median Tmax estimates, range across doses): 1 to 1.5 h; half-life ([1]; plasma, oral, healthy subjects, 20-1000 mg, read-out: median T½ estimates, range across doses): 1.54 to 3.5 h; AUC(0-inf) [3, 20]: 130 ng·h/mL; Cmax [3, 20]: 34.6 ng/mL; Tmax [3, 20]: 1.74 h; half-life [3, 20]: 2.05 h; AUC(0-inf) [3, 21]: 1290 ng·h/mL; half-life [3, 21]: 3.28 h; Cmax [3, 22]: 314 ng/mL; Tmax [3, 22]: 2.75 h
